This is an account of results in patent US20150329483A1, “Methods and Pharmaceutical Compositions for the Treatment of X-Linked Charcot-Marie-Tooth” (INSERM (Institut National de la Santé et de la Recherche …, priority 2012, published 2015).

In test [1] the test system is S3 cells. Nature of the test: Connexon activity of S3 cells treated with KN62 and KN93 derivatives. Format: cell-based, mouse. Particulars: for Connexon activity at 0.1 μM / Connexon activity at 1 μM / Connexon activity at 10 μM / Connexon activity at 50 μM: 24 hours of treatment. The method, then:
Animal cells and wild-type mouse cells transgenic animals S3 created in the as described in EXAMPLE 13 are cultured in 96-well microplates. We have shown that the S3 cells have an abnormality of the connexon activity due to the mutation of connexin 32 introduced in this line. […] The cells were incubated with new molecules and connexon activity was evaluated. […] Regarding KN93 derivatives most substitutions suppress the activity “correction activity connexon” molecules, excepting for a few molecules.
S3 cells were treated with various molecules, at increasing concentrations. Moreover transgenic animals of the same lineage cells and untreated transgenic animals are used as controls. The connexon activity was assessed after 24 hours of treatment. The activity is expressed in thousands of arbitrary fluorescence units. […] As a comparison we use the reference molecule KN 93 at a concentration of 10 μM.

For test [2], the system named is S3 fibroblasts. In words: Nuclear volume evaluation (DAPI, ImageJ) in cultured fibroblasts. Format: cell-based, mouse. Particulars: for Nuclear Volume: S3 fibroblasts cultured 24 hrs with CamKII inhibitor, WT 8607, untreated S3 15029; for Effect on nuclear (cellular) volume, in words: S3 fibroblasts treated with inhibitor. The method, then:
(§1) For the isolation of fibroblasts a small fragment of mouse ear was removed, dipped in alcohol solution, cut into small pieces in a sterile Petri dish in the presence of PBS containing fungicide (fonigizon) diluted 1/250, and transferred to 2-ml tubes containing 1 ml dissociation buffer (DMEM plus 20% FBS, 1 mg/ml BSA, 0.5 mg/ml collagenase, 0.25 mg/ml trypsin and penicillin/streptomycin). The tubes were incubated in a water bath with agitation for 1 h at 37° C. Fibroblast medium (DMEM, 10% FBS, 2 mM Gln, 100 U/ml penicillin, 100 μg/ml streptomycin) was added to each tube and the samples were centrifuged at 400 g for 10 min. The cells were re-suspended in fibroblast medium, seeded into Petri dishes and placed in an incubator at 37° C., 5% CO2. The culture medium was replaced every two days. When the cultures reached sub-confluence, the cells were trypsinized and expanded into tissue culture flasks. All experiments were performed using cells between passage numbers four and eight.
Nuclei were stained with DAPI and nuclear volume was evaluated with ImageJ software.
Nuclear volume correction. Fibroblasts from Wild type (WT) and S3 transgenic mouse have been cultured for 24 hrs with or without CamKII inhibitors (KN62 and KN93). Nuclear volume has been evaluated using the Imagej software. […] This experiment has been repeated three time.

The subject of test [3] is S3 fibroblasts. In words: Centrosome number per cell (γ-tubulin labelling). Format: cell-based, mouse. The settings on record: for >centro (percentage of cells with more than two centrosomes) / 2 centro (percentage of cells with two centrosomes) / 1 centro (percentage of cells with one centrosome): S3 fibroblasts cultured with inhibitor; for >centro (percentage of cells with more than two centrosomes): WT 3, untreated S3 18; for 2 centro (percentage of cells with two centrosomes): WT 18, untreated S3 22; for 1 centro (percentage of cells with one centrosome): WT 79%, untreated S3 60%; for Effect on centrosome number per cell, in words: S3 fibroblasts treated with inhibitor. The method, then:
as §1
Cells were grown on glass coverslips for 24 h to allow cultures to reach 80% confluence. To measure the number of centrosomes, cells were fixed with 4% PFA, permeabilized with methanol at −20° C. for 8 min and blocked with 0.5% Triton X-100 in PBS for 30 min at RT. To detect g-tubulin, cells were incubated overnight at 4° C. with a mouse anti-g-tubulin antibody (GTU-88; Sigma) diluted 1/1000 in PBS containing 0.1% milk and 0.05% Triton X-100. After washing, the cells were incubated for 1 h at RT with Cy3-conjugated goat antimouse IgG secondary antibody (Caltag Laboratories) diluted 1/2000 in PBS containing 0.1% milk and 0.05% Triton X-100. The preparations were counterstained with DAPI in Vectashield mounting medium (Vector Laboratories). Fluorescent images were acquired with a microscope (Leica DMR) equipped with a PL APO objective.
Number of centrosomes per cell. Fibroblasts from WT and S3 have been cultured with or without CamKII inhibitors. Centrosome number per cell has been evaluated as described in methods. […] This experiment has been repeated three time.

The test system of test [4] is CamKII. The settings on record: cited from earlier work.
Test [5] deals with S3 fibroblasts. Nature of the test: Connexon activity, lucifer yellow uptake, 96 well plate. Format: cell-based, mouse. Here is the method:
FIG. 3. A. Connexon activity in fibroblasts from WT, S3 and S3 treated with KN93 was monitored in a 96 well plate assay, using lucifer yellow as a fluorescent dye (see methods). Fluorescence is in arbitrary units. B, C and D. Connexon activity of WT mouse fibroblasts (B), S3 transgenic mouse (C) and S3 incubated with KN93 (D), were incubated with LY for two hours and examined under a fluorescent microscope.
One hundred thousand cells were cultured as described above for one day with or without CamKII inhibitors (KN62 or KN93 at a final concentration of 10 μM). Lucifer yellow (LY) was added to the medium (final concentration: 110 mM) and incubated for two hours. Fluorescence was recorded using a Perkin Elmer Victor 4 microplaque reader (excitation: 405 nm, emission: 535 nm).
Fibroblasts from WT and S3 (treated or not with KN93) have been cultured for 2 days in 96 wells microplaques. Lucifer yellow has been then added to the medium and fluorescence monitored after 2 hours (cell auto fluorescence and fluorescence of LY without cells, have been evaluated and substracted). This experiment has been repeated three time.

Test [6] deals with G2 transgenic line (mutated human Cx32 G12S). In words: Rotarod locomotor test, G2 transgenic line. The class given is in vivo, mouse. Here is the method: FIG. 4. Mice from the G2 line were treated either with a placebo (4 animals) or with soluble KN93 (4 animals, 1.5 mg/kg, i.p., 1 administration per day) for one month and performances on the rotarod evaluated. Treatment was then stopped and locomotor performances evaluated one month later.
(§2) Transgenic animals received intraperitoneal injections, either with a placebo (0.9% physiological serum) or with KN 93 (1.5 mg/kg). Treatment took place every day for one month.
(§3) Locomotor ability was tested using the rotarod procedure, requiring motor coordination and balance control. A machine manufactured by Bioseb was used for this purpose. A previously used procedure (Norreel et al., 2001) was adapted and two velocities (15 and 25) were used. Briefly, each mouse underwent the same 5-day procedure. The first two days were used to train the animals (five sessions of 2-min walking at a very low speed, i.e. five rotations per minute (r.p.m.)). The last three days were used to run the test sessions. Each day, the mice performed two series of five trials, a training speed with a 1-h rest period between the two series and a 5-min rest period between two consecutive trials. The software provided by Bioseb (Sedacom v1) was used to monitor the time the animals were on the rod.
(§4) Mouse from the G2 transgenic line have been treated either with a placebo (4 animals) or with soluble KN93 (4 animals). Locomotor performances of the animals have been evaluated using the rotarod test after one month of treatment. Performances of WT and G2 treated with KN93, are not statistically different. On the contrary performances of G2 animals treated either with a placebo or with KN93 are highly statistically significant (p value<0.0001). Treatment has been stopped for one month and rotarod performances evaluated. Rotarod performances of KN 93 treated or placebo treated degrade and are not statically different.
Background: The rotarod test checks motor coordination on a turning rod.

For test [7], the system named is S3 transgenic line (mutated human Cx32 S26L). Nature of the test: Rotarod locomotor test, S3 transgenic line. The class given is in vivo, mouse. Here is the method:
as §2, §3
as §4, with “Mouse (4)” for “Mouse”, “S3” for “G2”, “placebo” for “placebo (4 animals)”, “KN93.” for “KN93 (4 animals).”, “statistically” for “statically”

Turning to `COc1ccc(S(=O)(=O)N(CCO)c2ccccc2CN(C)C/C=C/c2ccccc2)cc1` [CM08-16, 2-hydroxy-S-(4-methoxyphenyl)-N′-[2-({methyl[(2E)-3-phenylprop-2-en-1-yl]amino}methyl)phenyl]ethane-1-sulfonamido], in test [1], the “Connexon activity at 0.1 μM” value is given as 131 thousands of arbitrary fluorescence units, the “Connexon activity at 1 μM” value is recorded as 142 thousands of arbitrary fluorescence units, the “Connexon activity at 10 μM” value is given as 159 thousands of arbitrary fluorescence units and the “Connexon activity at 50 μM” value is given as 160 thousands of arbitrary fluorescence units.

On to `COc1ccc(S(=O)(=O)N(CCO)c2ccccc2CN(C)Cc2ccc3ccccc3c2)cc1` [CM08-18, 2-hydroxy-S-(4-methoxyphenyl)-N′-(2-{[methyl(naphthalen-2-ylmethyl)amino]methyl}phenyl)ethane-1-sulfonamido], for which, in test [1], the “Connexon activity at 0.1 μM” value is listed as 125 thousands of arbitrary fluorescence units, the “Connexon activity at 1 μM” value is 150 thousands of arbitrary fluorescence units, the “Connexon activity at 10 μM” value is 162 thousands of arbitrary fluorescence units and the “Connexon activity at 50 μM” value was 174 thousands of arbitrary fluorescence units.

As to `COc1ccc(S(=O)(=O)N(CCO)c2ccccc2CN(C)Cc2ccccc2)cc1` [CM08-33, N-(2-{[benzyl(methyl)amino]methyl}phenyl)-2-hydroxy-S′-(4-methoxyphenyl)ethane-1-sulfonamido], in test [1], the “Connexon activity at 0.1 μM” value is listed as 162 thousands of arbitrary fluorescence units, the “Connexon activity at 1 μM” value is reported as 196 thousands of arbitrary fluorescence units, the “Connexon activity at 10 μM” value was 189 thousands of arbitrary fluorescence units and the “Connexon activity at 50 μM” value is 180 thousands of arbitrary fluorescence units.

With `COc1ccc(S(=O)(=O)N(CCO)c2ccccc2CN(C)CCCc2ccc(Cl)cc2)cc1` [CM08-40, N-[2-({[3-(4-chlorophenyl)propyl](methyl)amino}methyl)phenyl]-2-hydroxy-S′-(4-methoxyphenyl)ethane-1-sulfonamido], in test [1], the “Connexon activity at 0.1 μM” value is listed as 169 thousands of arbitrary fluorescence units, the “Connexon activity at 1 μM” value is 169 thousands of arbitrary fluorescence units, the “Connexon activity at 10 μM” value is listed as 167 thousands of arbitrary fluorescence units and the “Connexon activity at 50 μM” value was 162 thousands of arbitrary fluorescence units.

As to `CN([C@@H](Cc1ccc(OS(=O)(=O)c2cccc3cnccc23)cc1)C(=O)N1CCN(c2ccccc2)CC1)S(=O)(=O)c1cccc2cnccc12` [KN62, 1-[N,Obis(5-isoquinolinesulfonyl)-N-methyl-L-tyrosyl]-4-phenylpiperazine], in test [2], the “Nuclear Volume” value stood at 10100 and the “Effect on nuclear (cellular) volume, in words” value is on record as “restitution of normal cellular volume”. For the same molecule, in test [3], the “>centro (percentage of cells with more than two centrosomes)” value is 6%; the “2 centro (percentage of cells with two centrosomes)” value was determined as 32%; the “1 centro (percentage of cells with one centrosome)” value was 62%; the “Effect on centrosome number per cell, in words” value (from here on “Effect … per cell, in words”) is reported as “returns to close to normal”.

Regarding `COc1ccc(S(=O)(=O)Nc2ccccc2CN(C)C/C=C/c2ccc(Cl)cc2)cc1` [KN92], in test [3], the “>centro (percentage of cells with more than two centrosomes)” value came to 20%; the “2 centro (percentage of cells with two centrosomes)” value is on record as 20%; the “1 centro (percentage of cells with one centrosome)” value is reported as 60%; the “Effect … per cell, in words” value was “unchanged”. Moreover, the “CamKII inhibitory activity, in words” value in test [4] is “no CamKII inhibitory activity”.

For `COc1ccc(S(=O)(=O)N(CCO)c2ccccc2CN(C)C/C=C/c2ccc(Cl)cc2)cc1` [KN93], in test [2], the “Nuclear Volume” value is reported as 11000 and the “Effect on nuclear (cellular) volume, in words” value is “restitution of normal cellular volume”. In test [3], the “>centro (percentage of cells with more than two centrosomes)” value is listed as 7%; the “2 centro (percentage of cells with two centrosomes)” value was found to be 20%; the “1 centro (percentage of cells with one centrosome)” value is given as 73%; the “Effect … per cell, in words” value was “returns to close to normal”. Also, in test [5] (S3 cells treated with KN93), the “Effect on connexon activity, in words” value is listed as “significantly improved though not totally restored”. The LY intensity in test [5] (S3 fibroblasts, KN93 10 μM, fluorescence 2 hours after lucifer yellow, WT 63, untreated S3 17) is 28 +/− 9 arbitrary units. Also, the “Effect on progression of locomotor phenotype, in words” value in test [6] (G2 animals, soluble form 1.5 mg/kg i.p. per day) is on record as “significantly lowers the progression of the phenotype”. For the same molecule, in test [6] (G2 animals, treatment stopped after one month), the “Locomotor activity after treatment stopped, in words” value was “rapid degradation of the locomotor activity ensued”. Further, the “Mean Minutes on rotarod, W4 treated” value in test [6] (G2 line, 1.5 mg/kg i.p. per day for one month, T0 3.90, W4 placebo 3.20) stood at 3.6 min. Besides, the “Mean Minutes on rotarod, W4 treated + 1 month arrest” value in test [6] (G2 line, one month after stopping treatment, placebo + arrest 2.84) amounted to 2.9 min. Also, the “Degradation of locomotor capacities, in words” value in test [7] (S3 animals, soluble form 1.5 mg/kg i.p. per day) is given as “lowered”. The “Locomotion after stopping the treatment, in words” value in test [7] (S3 animals, treatment stopped) was “strong degradation of locomotion”. The “Mean Minutes on rotarod, W4 treated” value in test [7] (S3 line, 1.5 mg/kg i.p. per day for one month, T0 2.7, W4 placebo 2.1) was determined as 2.5 min. In addition, the “Mean Minutes on rotarod, W4 treated + 1 month arrest” value in test [7] (S3 line, one month after stopping treatment, placebo + arrest 1.5) stood at 1.41 min. In addition, the “Connexon activity, KN93 reference column” value in test [1] (KN93 10 μM, 24 hours, WT 230, untreated S3 126-129) is reported as 191 thousands of arbitrary fluorescence units.
